Data set [1] addresses T1, SLO-1 (Glycine max, UniProt P08170).
T1 construct: made in house
T1 sequence (P08170 1-839): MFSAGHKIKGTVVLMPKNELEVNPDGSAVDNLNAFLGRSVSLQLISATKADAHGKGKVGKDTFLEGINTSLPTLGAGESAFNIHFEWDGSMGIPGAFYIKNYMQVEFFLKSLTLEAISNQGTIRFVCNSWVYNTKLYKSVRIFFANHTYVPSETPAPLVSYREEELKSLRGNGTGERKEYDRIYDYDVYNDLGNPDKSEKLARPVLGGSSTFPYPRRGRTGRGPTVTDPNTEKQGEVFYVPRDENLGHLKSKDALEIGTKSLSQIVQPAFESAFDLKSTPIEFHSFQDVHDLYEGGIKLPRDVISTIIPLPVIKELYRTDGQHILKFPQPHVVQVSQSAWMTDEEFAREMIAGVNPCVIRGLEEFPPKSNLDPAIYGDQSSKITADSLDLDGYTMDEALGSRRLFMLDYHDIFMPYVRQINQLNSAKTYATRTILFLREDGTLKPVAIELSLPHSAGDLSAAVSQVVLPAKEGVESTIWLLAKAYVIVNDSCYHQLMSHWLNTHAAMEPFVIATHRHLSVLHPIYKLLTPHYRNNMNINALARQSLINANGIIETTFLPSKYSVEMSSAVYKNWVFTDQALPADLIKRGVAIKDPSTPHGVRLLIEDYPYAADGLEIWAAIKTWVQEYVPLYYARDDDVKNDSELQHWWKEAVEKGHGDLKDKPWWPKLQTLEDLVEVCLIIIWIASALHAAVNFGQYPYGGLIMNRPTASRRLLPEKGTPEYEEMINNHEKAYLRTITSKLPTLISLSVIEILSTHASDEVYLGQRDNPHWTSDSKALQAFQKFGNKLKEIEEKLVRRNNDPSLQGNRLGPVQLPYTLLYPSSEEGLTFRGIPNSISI
Kind of data set: Steady state kinetics / inhibition studies, SLO-1. The data set is classed as biochemical, soybean. As to the method: Steady State Kinetics. Lipoxygenase rates were determined by following the formation of product at 234 nm (ε=25,000 M^−1cm^−1) with a Hewlett-Packard 8453 UV-vis spectrophotometer. The destruction of 13-HPOD by the diode array spectrophotometer were negligible under these reaction conditions. All reactions were 2 ml in volume, run at room temperature (23° C.) and constantly stirred with a rotating magnetic bar. In experiments using SLO-1, kinetic reactions were performed in 0.1 M borate (pH 9.2), while reactions using 15-HLO were performed in 25 mM HEPES (pH 7.5). Substrate solutions used in each experiment were measured for accurate LA concentration by quantitatively converting substrate to product using soybean lipoxygenase-1. Enzymatic rates were measured between 1-50 μM LA with 1-25 μM OS for SLO-1 and lower than 2 μM LA for 15-HLO. Solutions containing LA and/or OS were sonicated for 3-5 minutes before use in kinetic experiments. Rate reactions were initiated by the addition of enzyme to final concentrations of 3 nM SLO-1 (80% iron content) and 200 nM 15-HLO (15% iron content). All kinetic parameters were determined by non-linear regression using Kaleidagraph software (Abelbeck).

Data set [2] concerns the target T1, SLO-1. Briefly: Kinetic isotope effect (KIE) titration, SLO-1. The data set is classed as biochemical, soybean. As to conditions: for Kd: SLO-1, 5 μM LA/D-LA, pH 9.2, read-out: KD from hyperbolic fit of KIE. As to the method:
Kinetic Isotope Effect Determination. Determination of the kinetic isotope effect (KIE) was similar to that previously published by Holman and coworkers with the following modifications. Lewis et al., J. Am. Chem. Soc. (1994) 116:795-796. Lipoxygenase is added (0.12 nM SLO-1 and 12 nM 15-HLO) to a protio/per-deutero LA mixture (60 mL, 5 μM LA/D-LA), monitored at 234 nm with a P-E Lambda 4 and stopped with an acid quench (5% glacial acetic acid) at less than 5% total LA/D-LA consumption. […] The acidified reaction mixture is extracted with methylene chloride (trimethylphosphite, which quantitatively reduces the labile 13-HPOD, is not needed since both the alcohol and the peroxide have the same elution time). […] (isocratic mobile phase: 74.9% Methanol :25% H2O: 0.1% Acetic acid). […] Lewis et al., supra. […] When the percent conversion (f) to product is less than 5%, this equation simplifies to ([[…]]), where [P-H] is protio-product concentration and [So-H] is the initial protio-substrate concentration. […] et al., Reaction Rates of Isotopic Molecules (R. E. Krieger Publishing, Florida)(1987). […] Greater substrate ratios than 2:1 were not used due to the expensive nature of the per-deutero substrate. Under these conditions, the upper limit for the KIE is greater than 130 and is limited by the vanishingly small peak area of the per-deutero 13-HPOD peak relative to the negative control. This RP-HPLC based method for determining molar protio/per-deutero 13-HPOD ratios gave results identical (within experimental error) to those obtained by EI-MS. No appreciable side products at any wavelength for 15-HLO or SLO-1 were observed, indicating no reaction branching. The OS titration experiments require 5 μM LA/D-LA to record product ratios. For the 15-HLO experiments (pH 7.5), OS concentrations above 6 μM were not feasible due to large amounts of a white emulsion at the extraction interface which inhibited product recovery. This emulsion was not observed for reactions performed with SLO-1 (pH 9.2). […] All kinetic data reported were measured in triplicate on two distinct days.

A further data set concerns the target T2, 15-HLO (Homo sapiens, UniProt P16050).
T2 construct: made in house
T2 sequence (P16050 1-662): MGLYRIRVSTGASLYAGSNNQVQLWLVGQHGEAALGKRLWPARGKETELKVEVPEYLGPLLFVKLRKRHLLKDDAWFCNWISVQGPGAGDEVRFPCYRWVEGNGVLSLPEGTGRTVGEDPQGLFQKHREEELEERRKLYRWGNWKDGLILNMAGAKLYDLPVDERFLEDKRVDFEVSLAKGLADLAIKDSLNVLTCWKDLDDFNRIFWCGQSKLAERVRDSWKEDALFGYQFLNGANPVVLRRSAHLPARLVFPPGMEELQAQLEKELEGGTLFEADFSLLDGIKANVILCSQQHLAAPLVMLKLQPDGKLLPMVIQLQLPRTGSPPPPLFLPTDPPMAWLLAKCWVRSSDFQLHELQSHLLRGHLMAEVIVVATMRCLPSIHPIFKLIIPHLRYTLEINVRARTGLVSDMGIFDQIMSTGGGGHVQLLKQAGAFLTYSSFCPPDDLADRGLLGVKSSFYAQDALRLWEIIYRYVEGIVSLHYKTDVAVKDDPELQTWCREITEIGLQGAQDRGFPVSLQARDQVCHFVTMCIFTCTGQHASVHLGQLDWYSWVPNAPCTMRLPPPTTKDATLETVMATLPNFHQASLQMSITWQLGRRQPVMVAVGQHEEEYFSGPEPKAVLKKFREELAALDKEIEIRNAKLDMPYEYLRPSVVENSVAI
Kind of data set: Kinetic isotope effect (KIE) titration, 15-HLO. The data set is classed as biochemical. As to the method: Kinetic Isotope Effect Determination. Determination of the kinetic isotope effect (KIE) was similar to that previously published by Holman and coworkers with the following modifications. Lewis et al., J. Am. Chem. Soc. (1994) 116:795-796. Lipoxygenase is added (0.12 nM SLO-1 and 12 nM 15-HLO) to a protio/per-deutero LA mixture (60 mL, 5 μM LA/D-LA), monitored at 234 nm with a P-E Lambda 4 and stopped with an acid quench (5% glacial acetic acid) at less than 5% total LA/D-LA consumption. It is important to note that diode array spectrophotometers degrade 13-hydroperoxy-9,11-(Z,E)-octadecadienoic acid (13-HPOD) and care should be taken if the reaction time length is longer than 5 minutes. The acidified reaction mixture is extracted with methylene chloride (trimethylphosphite, which quantitatively reduces the labile 13-HPOD, is not needed since both the alcohol and the peroxide have the same elution time). The methylene chloride layer is evaporated to dryness under vacuum, reconstituted in 50 μL running buffer, injected onto a C18 column (Higgins Analytical, 5 micron, 250×4.6 mm), and eluted at 1 mL/min. (isocratic mobile phase: 74.9% Methanol :25% H2O: 0.1% Acetic acid). […] All kinetic data reported were measured in triplicate on two distinct days.

A short description of data set [3]: Surface tension measurements (CMC). The data set is classed as physicochemical. As to the method: Surface Tension Measurements. Buffers were used which correspond to those of the kinetic measurements. Surface tension was measured as described by Harkins et al., using a thin platinum plate (perimeter 2.5 cm) and a Cahn electro-microbalance. Harkins et al., J. Am. Chem. Soc. (1937) 59:2189-2197. Various amounts of surface active agent were added to a 30 ml buffer solution and the surface tension was continuously recorded. After each addition, a sufficiently long period of time (10-30 min.) was allowed to elapse before attaining a steady value of the surface tension. Critical micelle concentration (CMC) values were obtained by plotting the measured surface tensions versus the logarithm of the concentrations of the surface-active agent and recording the intercept of the two straight lines. The point at which a deviation from the straight line, as observed in the surface tension versus log [surface-active agent] plot, was defined as the start of pre-micellular aggregate formation. Harkins et al., supra; Verhagen et al., Chem. Phys. Lipids (1978) 22:255-259.

Structures can show the parent of a compound that is named as a salt. Where two headings read alike, the source gives them in different places.

For orientation: Kd means the concentration at which binding is half-saturated. As for `CCCCCCCC/C=C\CCCCCCCCOS(=O)(=O)O` [OS, (Z)-9-octadecenyl sulfate], the “lessens the rate of catalysis (k2 decreases)” value at SLO-1 [1] (SLO-1) is listed as 15%. In addition, the Ki on SLO-1 [1] (fit to Km (app) saturation curve, Eq. 3, read-out: Ki) was 0.45 ± 0.16 µM; at SLO-1 [1] (fit to kcat/Km data, Eq. 4, β approximated 0.85, read-out: Ki), 0.86 ± 0.11 µM; on SLO-1 [1] (simulation Scheme 3, Eqs. 7 and 8, read-out: Kii (catalytic site), minimal value) it was not below 100 µM. Moreover, the Kd on SLO-1 [2] was 0.6 ± 0.2 µM; at 15-HLO (5 μM LA/D-LA, pH 7.5, read-out: KD from hyperbolic fit of KIE) it was 0.4 ± 0.05 µM; at 15-HLO (conclusion, unit inferred, read-out: KD) it was 0.45 ± 0.05 µM.

For `CCCCCCCCCCCCOS(=O)(=O)[O-].[Na+]` [SDS], the “effect on KIE” value at SLO-1 [2] (control for non-specific surfactant binding) was “no increase in the KIE”.

For the molecule `CCCCC/C=C\C/C=C\CCCCCCCC(=O)O` [LA, Linoleic Acid], the figures for the CMC in data set [3] (25 mM HEPES (pH 7.5)) and in data set [3] (0.1 M borate (pH 9.2)) were 40 ± 10 µM and 150 ± 10 µM, respectively. Besides, on SLO-1 [1] (SLO-1, no appreciable substrate inhibition below 30 μM LA, read-out: KD (allosteric site)), the Kd is more than 30 µM.

On to `CCCCCCCC/C=C\CCCCCCCC(=O)O` [OA, oleic acid], for which the Kd on SLO-1 [2] is 36 ± 14 µM.

Values taken from patent US6479546B1, “Allosteric inhibitors of lipoxygenase” (The Regents of the University of California, priority 2000, dated 2002).
